The values that follow come from patent US20250215030A1, “STAT MODULATORS AND USES THEREOF” (Recludix Pharma, Inc., priority 2022, published 2025).

Assay [1] deals with T1, pSTAT6 (pY641-STAT6) (Homo sapiens, UniProt P42226).
T1 construct: host or cells: cryopreserved PBMC
T1 sequence (P42226 1-847): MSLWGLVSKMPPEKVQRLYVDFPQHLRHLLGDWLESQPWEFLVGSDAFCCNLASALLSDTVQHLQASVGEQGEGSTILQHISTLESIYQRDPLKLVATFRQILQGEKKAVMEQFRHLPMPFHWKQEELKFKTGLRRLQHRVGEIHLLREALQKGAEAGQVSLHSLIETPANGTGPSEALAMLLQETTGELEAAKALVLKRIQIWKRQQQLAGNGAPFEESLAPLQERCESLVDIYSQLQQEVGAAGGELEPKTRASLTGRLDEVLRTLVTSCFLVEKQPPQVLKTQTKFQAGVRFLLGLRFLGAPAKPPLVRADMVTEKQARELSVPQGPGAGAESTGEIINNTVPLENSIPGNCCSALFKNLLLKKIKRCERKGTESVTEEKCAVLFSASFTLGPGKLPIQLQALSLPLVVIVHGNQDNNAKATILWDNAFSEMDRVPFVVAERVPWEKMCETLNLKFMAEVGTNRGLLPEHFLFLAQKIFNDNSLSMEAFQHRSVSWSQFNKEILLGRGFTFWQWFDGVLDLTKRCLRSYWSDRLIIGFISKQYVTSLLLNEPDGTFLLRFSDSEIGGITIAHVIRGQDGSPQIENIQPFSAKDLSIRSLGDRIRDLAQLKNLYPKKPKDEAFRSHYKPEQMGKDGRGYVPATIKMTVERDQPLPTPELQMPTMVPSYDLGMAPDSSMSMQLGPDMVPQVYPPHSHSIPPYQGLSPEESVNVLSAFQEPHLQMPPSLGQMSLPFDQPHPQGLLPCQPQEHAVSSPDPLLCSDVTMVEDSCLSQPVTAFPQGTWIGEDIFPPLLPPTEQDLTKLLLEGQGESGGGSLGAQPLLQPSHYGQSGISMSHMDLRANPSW
The assay can be described thus: MSD-pSTAT-PBMC Assay (pSTAT6, IL-4 stimulated). The assay is classed as cell-based. The following applies: compound 3 hrs, then 1 ng/mL IL-4 for 10 min. In a few lines:
(§1)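 Human PBMCs (50,000 cells/well for STAT3, 25,000 for STAT6) treated with compound 3 h, then stimulated 10 min with 10 ng/mL IL-6 or 1 ng/mL IL-4. Lysate pSTAT3 (pY705) or pSTAT6 (pY641) measured by MSD sandwich electrochemiluminescence. Signal minus unstimulated, normalized to DMSO; IC50 by variable-slope nonlinear regression.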

Assay [2] deals with T2, pSTAT3 (pY705-STAT3) (Homo sapiens, UniProt P40763).
T2 construct: host or cells: cryopreserved PBMC
The assay can be described thus: MSD-pSTAT-PBMC Assay (pSTAT3, IL-6 stimulated). The assay is classed as cell-based. The following applies: PBMC, compound 3 hrs, then 10 ng/mL IL-6 for 10 min; MSD pY705-STAT3; read-out: pSTAT3. In outline: as §1

T2 sequence (P40763 whole entry): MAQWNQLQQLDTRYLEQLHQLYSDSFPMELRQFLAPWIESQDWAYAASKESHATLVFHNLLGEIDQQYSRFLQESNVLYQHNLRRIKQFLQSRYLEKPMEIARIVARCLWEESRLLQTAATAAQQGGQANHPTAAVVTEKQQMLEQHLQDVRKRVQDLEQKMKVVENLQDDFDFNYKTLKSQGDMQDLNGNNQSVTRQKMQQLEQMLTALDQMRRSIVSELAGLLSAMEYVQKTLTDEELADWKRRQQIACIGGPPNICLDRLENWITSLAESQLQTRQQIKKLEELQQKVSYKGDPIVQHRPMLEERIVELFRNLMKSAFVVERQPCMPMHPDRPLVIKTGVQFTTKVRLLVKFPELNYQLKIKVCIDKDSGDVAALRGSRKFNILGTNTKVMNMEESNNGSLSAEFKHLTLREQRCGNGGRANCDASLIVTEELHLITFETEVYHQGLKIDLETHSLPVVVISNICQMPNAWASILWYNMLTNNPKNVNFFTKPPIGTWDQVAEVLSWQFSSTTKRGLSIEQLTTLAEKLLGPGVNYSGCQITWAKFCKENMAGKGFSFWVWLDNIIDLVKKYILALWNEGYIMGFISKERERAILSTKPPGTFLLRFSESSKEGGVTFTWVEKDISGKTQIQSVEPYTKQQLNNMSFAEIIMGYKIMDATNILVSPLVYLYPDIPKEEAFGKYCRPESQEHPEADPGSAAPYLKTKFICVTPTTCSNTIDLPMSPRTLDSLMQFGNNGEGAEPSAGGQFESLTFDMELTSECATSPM

Turning to `CC(C)(C)C(=O)OCOP(=O)(OCOC(=O)C(C)(C)C)C(F)(F)c1ccc2sc(C(=O)N[C@H]3C[C@H]4C[C@H]4C[C@H]4CC[C@@H](C(=O)N[C@@H]5CCN(c6cccnc6)C5)N4C3=O)cc2c1` [Compound 213, (((difluoro(2-(((3S,6S,7aR, 8aS,9aR)-5-oxo-3-(((R)-1-(pyridin-3-yl)pyrrolidin-3-yl)carbamoyl)decahydro-1H-cyclopropa[d]pyrrolo[1,2-a]azocin-6-yl)carbamoyl)benzo[b]thiophen-5-yl)methyl)phosphoryl)bis(oxy)) bis(methylene) bis(2,2-dimethyl-propanoate)], the IC50 in assay [1] is greater than 3 µM; in assay [2], 0.1 to 1 µM.
For `CC(C)(C)C(=O)OCOP(=O)(OCOC(=O)C(C)(C)C)C(F)(F)c1ccc2sc(C(=O)N[C@H]3C[C@H]4C[C@H]4C[C@H]4CC[C@@H](C(=O)N5CC(n6ccnc6)C5)N4C3=O)cc2c1` [Compound 214, ((((2-(((3S,6S,7aR, 8aS,9aR)-3-(3-(1H-imidazol-1-yl)azetidine-1-carbonyl)-5-oxodecahydro-1H-cyclopropa[d]pyrrolo[1,2-a]azocin-6-yl)carbamoyl)benzo[b]thiophen-5-yl)difluoromethyl)phosphoryl)bis(oxy)) bis(methylene) bis(2,2-dimethyl-propanoate)], in that order: greater than 3 µM and less than 0.1 µM.
`CC(C)(C)C(=O)OCOP(=O)(OCOC(=O)C(C)(C)C)C(F)(F)c1ccc2sc(C(=O)N[C@H]3C[C@H]4C[C@H]4C[C@H]4CC[C@@H](C(=O)NC5CN(C(=O)CCC(F)(F)F)C5)N4C3=O)cc2c1` [Compound 215, (((difluoro(2-(((3S,6S,7aR, 8aS,9aR)-5-oxo-3-((1-(4,4,4-trifluoro-butanoyl)azetidin-3-yl)carbamoyl)decahydro-1H-cyclopropa[d]pyrrolo[1,2-a]azocin-6-yl)carbamoyl)benzo[b]thiophen-5-yl)methyl)phosphoryl)bis(oxy)) bis(methylene) bis(2,2-dimethyl-propanoate)]: the IC50 in assay [1] was 0.1 to 1 µM; in assay [2], less than 0.1 µM.
As to `CC(C)(C)C(=O)SCCOP(=O)(OCCSC(=O)C(C)(C)C)C(F)(F)c1ccc2sc(C(=O)N[C@H]3C[C@H]4C[C@H]4C[C@H]4CC[C@@H](C(=O)N5CC(c6ccccn6)C5)N4C3=O)cc2c1` [Compound 218, S,S′-((((difluoro(2-(((3S,6S,7aR, 8aS,9aR)-5-oxo-3-(3-(pyridin-2-yl)azetidine-1-carbonyl)decahydro-1H-cyclopropa[d]pyrrolo[1,2-a]azocin-6-yl)carbamoyl)benzo [b]thiophen-5-yl)methyl)phosphoryl)bis(oxy))bis(ethane-2,1-diyl)) bis(2,2-dimethyl-propanethioate)], the values for the IC50 in assay [1] and in assay [2] were greater than 3 µM and less than 0.1 µM, respectively.
Taken in the same sequence, the figures for `CC(C)(C)C(=O)SCCOP(=O)(OCCSC(=O)C(C)(C)C)C(F)(F)c1ccc2sc(C(=O)N[C@H]3C[C@H]4C[C@H]4C[C@H]4CC[C@@H](C(=O)N5CC(c6c[nH]cn6)C5)N4C3=O)cc2c1` [Compound 219, S,S′-(((((2-(((3S,6S,7aR, 8aS,9aR)-3-(3-(1H-imidazol-4-yl)azetidine-1-carbonyl)-5-oxodecahydro-1H-cyclopropa[d]pyrrolo[1,2-a]azocin-6-yl)carbamoyl)benzo[b]thiophen-5-yl)difluoromethyl)phosphoryl)bis(oxy))bis(ethane-2,1-diyl)) bis(2,2-dimethyl-propanethioate)] were 0.1 to 1 µM and less than 0.1 µM.
